The results in this text go back to patent publication US4159373A, “7-Acyl-3-(sulfonic acid and sulfamoyl substituted tetrazolyl thiomethyl) cephalosporins” (SmithKline Corporation, priority 1978, dated 1979).

Converted amounts (≈) assume the structure as drawn. Read-outs that look alike come from different tables or passages of the source.

One test deals with E. coli HH 33779. The test is described as follows: MIC in vitro. The format is cell-based. As to conditions: E. coli HH 33779; for MIC: Escherichia coli, HH33779, Table 1, read-out: MIC in vitro. On the procedure: (§1) The compounds of Formula I have exceptional antibacterial activity against both Gram-positive and Gram-negative organisms. Minimum inhibitory concentrations (MIC's) ranged from 0.2 to <200 μg./ml. in in vitro testing.

The test system of the next test is E. coli SK 12140. Briefly: MIC in vitro. The class given is cell-based. The note with it: Escherichia coli, SK12140; Table 1; E. coli SK 12140; read-out: MIC in vitro. On the procedure:
as §1

A further test has as its system Proteus morgani 179. The test is described as follows: MIC in vitro. The class given is cell-based. The note with it: for MIC: Table 1, read-out: MIC in vitro. As for the experimental part: as §1
The test system of a further test is S. aureus HH 127. The test is described as follows: MIC in vitro. The format is cell-based. The note with it: Staphylococcus aureus, S. aureus HH 127. As for the experimental part: as §1
A further test deals with S. aureus SK 23390. The test is described as follows: MIC in vitro. The note with it: Staphylococcus aureus, SK23390, Table 1; S. aureus SK 23390; read-out: MIC in vitro. The format is cell-based. As for the experimental part:
as §1

The next test concerns S. villaluz. The test is described as follows: MIC in vitro. The class given is cell-based. As to conditions: Table 1. As for the experimental part: as §1
The subject of a further test is Salmonella ATCC 12176. Briefly: MIC in vitro. The class given is cell-based. The note with it: for MIC: Salmonella, ATCC12176, Table 1, read-out: MIC in vitro. As for the experimental part:
as §1

Another test relates to Strep. Faecalis HH 34358. Briefly: MIC in vitro. The class given is cell-based. The note with it: Table 1, Strep. Faecalis HH 34358; for MIC: Enterococcus faecalis, read-out: MIC in vitro. On the procedure: as §1
The next test concerns Kleb. pneumo. SK 1200. Briefly: MIC in vitro. The note with it: Klebsiella pneumoniae, read-out: MIC in vitro. The class given is cell-based, Kleb. pneumoniae. As for the experimental part: as §1
A further test has as its system Kleb. pneumo. SK 4200. The test is described as follows: MIC in vitro. The format is cell-based, Kleb. pneumoniae. As to conditions: Table 1, Kleb. pneumo. SK 4200; for MIC: Klebsiella pneumoniae, read-out: MIC in vitro. On the procedure: as §1
In a further test the test system is Psuedo. sp. HH 63. Briefly: MIC in vitro. The class given is cell-based, Pseudo. aeruginosa. The note with it: Pseudomonas aeruginosa; Table 1; Psuedo. sp. HH 63; read-out: MIC in vitro. On the procedure:
as §1

In test [1] the test system is Entero. aerog. ATCC 13048. Briefly: MIC in vitro. The class given is cell-based, Enterobacter aerogenes. The note with it: Klebsiella aerogenes, ATCC13048, Table 1; Entero. aerog. ATCC 13048; read-out: MIC in vitro. As for the experimental part: as §1
The next test concerns Serra. marc ATCC 13880. Briefly: MIC in vitro. The format is cell-based, Serratia marcescens. As to conditions: Serra. marc ATCC 13880; for MIC: Serratia marcescens, ATCC13880, Table 1, read-out: MIC in vitro; for MIC in vitro: Table 1. On the procedure: as §1
The next test relates to Entero. cloacae HH 31254. Briefly: MIC in vitro. The format is cell-based. As to conditions: Enterobacter cloacae.
Another test deals with shigella HH 117. The test is described as follows: MIC in vitro. The class given is cell-based. As to conditions: HH117; Table 1; shigella HH 117; read-out: MIC in vitro. On the procedure:
as §1

The subject of a further test is E. coli 12140. Briefly: In vivo mouse protection, E. coli 12140. The note with it: Table 2, E. coli 12140, read-out: ED50 in vivo.
In another test the test system is Kleb. pneumo. 4200. The test is described as follows: In vivo mouse protection, Kleb. pneumo. 4200. As to conditions: read-out: ED50 in vivo.
The mark [2] stands for this setting: HH127, Table 1, read-out: MIC in vitro.
Setting [3] is: HH31254, Table 1, read-out: MIC in vitro.
Setting [4] is: Escherichia coli, 12140, po, p.o.
The mark [5] stands for this setting: Escherichia coli, 12140, sc, s.c.
Where [6] appears, read: sc, Table 2, Kleb. pneumo. 4200, s.c.

As for `N#CCC(=O)NC1C(=O)N2C(C(=O)O)=C(CSc3nnnn3CS(=O)(=O)O)CS[C@H]12` (stereo partly drawn) [XII, 7-cyanoacetamido-3-(1-sulfomethyltetrazol-5-ylthiomethyl)-3-cephem-4-carboxylic acid], the MIC in the test on E. coli HH 33779 is 1.6 µg/mL (≈ 3.36 µM); in the test on E. coli SK 12140, 0.8 µg/mL (≈ 1.68 µM); with Proteus morgani 179 it was 200 µg/mL (≈ 421 µM); in the test with S. aureus HH 127 (setting [2]), 1.6 µg/mL (≈ 3.36 µM); with S. aureus SK 23390 it was 1.6 µg/mL (≈ 3.36 µM); in the test on S. villaluz, more than 200 µg/mL. The MIC was 0.4 µg/mL (≈ 0.841 µM) in the test with Salmonella ATCC 12176; 50 µg/mL (≈ 105 µM) in the test on Strep. Faecalis HH 34358; 0.4 µg/mL (≈ 0.841 µM) with Kleb. pneumo. SK 1200; 0.8 µg/mL (≈ 1.68 µM) with Kleb. pneumo. SK 4200; more than 200 µg/mL with Psuedo. sp. HH 63; 3.1 µg/mL (≈ 6.52 µM) in [1]. The MIC with Serra. marc ATCC 13880 came to 50 µg/mL (≈ 105 µM); with Entero. cloacae HH 31254 (setting [3]), 1.6 µg/mL (≈ 3.36 µM).

Turning to `O=C(O)C1=C(CSc2nnnn2CCS(=O)(=O)O)CS[C@@H]2C(NC(=O)[C@H](O)c3ccccc3)C(=O)N12` (stereo partly drawn) [II, 7-D-Mandelamido-3-[1-(2-sulfoethyl)tetrazol-5-ylthiomethyl]-3-cephem-4-carboxylic acid], the MIC in the test with E. coli HH 33779 was 1.6 µg/mL (≈ 2.87 µM); with E. coli SK 12140, 0.8 µg/mL (≈ 1.44 µM); in the test on Proteus morgani 179, 6.3 µg/mL (≈ 11.3 µM); with S. aureus HH 127 (setting [2]) it was 1.6 µg/mL (≈ 2.87 µM); in the test on S. aureus SK 23390, 0.8 µg/mL (≈ 1.44 µM); in the test on Salmonella ATCC 12176, 0.8 µg/mL (≈ 1.44 µM). The MIC in the test with Strep. Faecalis HH 34358 is 50 µg/mL (≈ 89.8 µM); in the test with shigella HH 117 it was 0.4 µg/mL (≈ 0.719 µM); in the test with Kleb. pneumo. SK 1200, 0.4 µg/mL (≈ 0.719 µM); in the test with Kleb. pneumo. SK 4200, 0.8 µg/mL (≈ 1.44 µM); in the test on Psuedo. sp. HH 63 it was more than 200 µg/mL; in test [1], 6.3 µg/mL (≈ 11.3 µM). Further, the MIC with Serra. marc ATCC 13880 worked out at 25 µg/mL (≈ 44.9 µM); with Entero. cloacae HH 31254 (setting [3]) it was 3.1 µg/mL (≈ 5.57 µM). The ED50 in the test on E. coli 12140 (setting [4]) was found to be 35 mg/kg; in the test on E. coli 12140 (setting [5]), 0.58 mg/kg; with Kleb. pneumo. 4200 (po, Table 2, Kleb. pneumo. 4200, p.o.) it was 18.6 mg/kg; in the test with Kleb. pneumo. 4200 (setting [6]), 0.39 mg/kg.

For the molecule `O=C(O)C1=C(CSc2nnnn2CS(=O)(=O)O)CS[C@@H]2C(NC(=O)[C@H](O)c3ccccc3)C(=O)N12` (stereo partly drawn) [I, 7-D-Mandelamido-3-(1-sulfomethyltetrazol-5-ylthiomethyl)-3-cephem-4-carboxylic acid], the MIC stood at 3.1 µg/mL (≈ 5.71 µM) in the test with E. coli HH 33779; 0.8 µg/mL (≈ 1.47 µM) in the test with E. coli SK 12140; 3 µg/mL (≈ 5.53 µM) in the test with Proteus morgani 179; 3.1 µg/mL (≈ 5.71 µM) in the test with S. aureus HH 127 (HH127, read-out: MIC in vitro, Table 1); 6 µg/mL (≈ 11.1 µM) in the test on S. aureus HH 127 (setting [2]); 0.8 µg/mL (≈ 1.47 µM) with Salmonella ATCC 12176. Moreover, the MIC was 50 µg/mL (≈ 92.2 µM) with Strep. Faecalis HH 34358; 0.4 µg/mL (≈ 0.737 µM) with shigella HH 117; 0.8 µg/mL (≈ 1.47 µM) with Kleb. pneumo. SK 4200; more than 200 µg/mL in the test on Psuedo. sp. HH 63; 12.5 µg/mL (≈ 23 µM) in the test on Serra. marc ATCC 13880; 3 µg/mL (≈ 5.53 µM) in the test on Entero. cloacae HH 31254 (setting [3]). In the test on Entero. cloacae HH 31254 (HH31254, read-out: MIC in vitro, Table 1), the MIC was 0.8 µg/mL (≈ 1.47 µM). Besides, the MIC in vitro with E. coli HH 33779 (Table 1) amounted to 1.6 µg/mL (≈ 2.95 µM); against Proteus morgani 179 (Table 1) it was 3.1 µg/mL (≈ 5.71 µM); in the test with Salmonella ATCC 12176 (Table 1), 0.4 µg/mL (≈ 0.737 µM); with Strep. Faecalis HH 34358 it was 100 µg/mL (≈ 184 µM); with Serra. marc ATCC 13880 it was 13 µg/mL (≈ 24 µM). Moreover, the ED50 in the test on E. coli 12140 (setting [5]) turned out to be 1.56 mg/kg; in the test on Kleb. pneumo. 4200 (setting [6]), 0.28 mg/kg.

On to `O=C(Cc1cccs1)NC1C(=O)N2C(C(=O)O)=C(CSc3nnnn3CS(=O)(=O)O)CS[C@H]12` (stereo partly drawn) [V, 7-(2-thienylacetamido)-3-(1-sulfomethyltetrazol-5-ylthiomethyl)-3-cephem-4-carboxylic acid], for which the MIC with E. coli HH 33779 was 6.3 µg/mL (≈ 11.8 µM); in the test on E. coli SK 12140, 1.6 µg/mL (≈ 3 µM); in the test with Proteus morgani 179, more than 200 µg/mL; with S. aureus HH 127 (setting [2]) it was 0.8 µg/mL (≈ 1.5 µM); in the test on S. aureus SK 23390, 0.4 µg/mL (≈ 0.751 µM); with Salmonella ATCC 12176 it was 0.8 µg/mL (≈ 1.5 µM). The MIC was 25 µg/mL (≈ 46.9 µM) with Strep. Faecalis HH 34358; 1.6 µg/mL (≈ 3 µM) in the test on shigella HH 117; 0.4 µg/mL (≈ 0.751 µM) with Kleb. pneumo. SK 1200; 1.6 µg/mL (≈ 3 µM) in the test with Kleb. pneumo. SK 4200; more than 200 µg/mL in the test with Psuedo. sp. HH 63; 12.5 µg/mL (≈ 23.5 µM) in test [1]. Moreover, the MIC worked out at 100 µg/mL (≈ 188 µM) with Serra. marc ATCC 13880 and 1.6 µg/mL (≈ 3 µM) with Entero. cloacae HH 31254 (setting [3]). The values for the MIC in vitro in the test on Strep. Faecalis HH 34358, in the test with Kleb. pneumo. SK 4200 and against Serra. marc ATCC 13880 were 50 µg/mL (≈ 93.9 µM), 0.8 µg/mL (≈ 1.5 µM) and 200 µg/mL (≈ 376 µM), respectively. For the same molecule, the ED50 with E. coli 12140 (setting [4]) is more than 50 mg/kg; with E. coli 12140 (setting [5]) it was 4 mg/kg; in the test with Kleb. pneumo. 4200 (setting [6]) it was 0.26 mg/kg.
